Values of other authors, collected in US20020103240A1, “Process for resolution of 2-amino-6-propylamino-4,5,6,7-tetrahydrobenzthiazole and compounds therefor” (priority 2000, published 2002).

Settings: (S) isomer compared with (R) enantiomer; no test described

CCCN[C@H]1CCc2nc(N)sc2C1 [pramipexole, (S)-2-amino-6-propylamino-4,5,6,7-tetrahydrobenzothiazole]
dopaminergic activity of the (S) isomer relative to the (R) enantiomer: twice as high
